Source: the supplement of paper PMC10307832

Assays:
Assay in all cases: relative viability (nuclei count vs DMSO), 5 days (fraction); higher = more cells survive
JZL-184 + Phenformin = compound: C1CN(CCC1C(C2=CC3=C(C=C2)OCO3)(C4=CC5=C(C=C4)OCO5)O)C(=O)OC6=CC=C(C=C6)[N+](=O)[O-] [JZL-184] + N=C(N)NC(=N)NCCc1ccccc1 [Phenformin] (partner 250 µM)
Summary of the method: (§1)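 Lung cancer cell lines, seeded in 1536-well plates, were treated the following day by pin tool with a single drug or with five library-drug doses (not always all listed) in √10 steps on top of a fixed anchor-drug dose. Cells were fixed and nuclei stained in one step after 5 days, and nuclei were counted. Relative viability is the nuclei count for treated wells divided by that for vehicle wells, reported as medians of duplicate plates.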

JZL-184 + Linsitinib = compound: C1CN(CCC1C(C2=CC3=C(C=C2)OCO3)(C4=CC5=C(C=C4)OCO5)O)C(=O)OC6=CC=C(C=C6)[N+](=O)[O-] [JZL-184] + C[C@]1(O)C[C@@H](c2nc(-c3ccc4ccc(-c5ccccc5)nc4c3)c3c(N)nccn32)C1 [Linsitinib] (partner 1 µM)
Summary of the method: as §1

JZL-184 + Foretinib = compound: C1CN(CCC1C(C2=CC3=C(C=C2)OCO3)(C4=CC5=C(C=C4)OCO5)O)C(=O)OC6=CC=C(C=C6)[N+](=O)[O-] [JZL-184] + COc1cc2c(Oc3ccc(NC(=O)C4(C(=O)Nc5ccc(F)cc5)CC4)cc3F)ccnc2cc1OCCCN1CCOCC1 [Foretinib] (partner 0.25 µM)
Summary of the method: as §1

JZL-184 + Crizotinib = compound: C1CN(CCC1C(C2=CC3=C(C=C2)OCO3)(C4=CC5=C(C=C4)OCO5)O)C(=O)OC6=CC=C(C=C6)[N+](=O)[O-] [JZL-184] + C[C@@H](Oc1cc(-c2cnn(C3CCNCC3)c2)cnc1N)c1c(Cl)ccc(F)c1Cl [Crizotinib] (partner 1 µM)
Summary of the method: as §1

JZL-184 = compound: C1CN(CCC1C(C2=CC3=C(C=C2)OCO3)(C4=CC5=C(C=C4)OCO5)O)C(=O)OC6=CC=C(C=C6)[N+](=O)[O-] [JZL-184]
Summary of the method: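 MetaXpress counted nuclei in 4× images of lung cancer cell lines that had been fixed, permeabilised and Hoechst-stained in one step. Before that, cells in 1536-well plates were kept overnight at 37 °C, pinned with five √10-spaced library-drug doses on vehicle-anchored plates, and cultured 5 days without medium change. Viability takes treated-well nuclei over vehicle-well nuclei and uses the median across plates. Plates were accepted only at control CV below 25% and at least one doubling.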

Cell Line	relative viability (JZL-184 + Phenformin; first compound 0.04 µM)	relative viability (JZL-184 + Phenformin; first compound 0.4 µM)	relative viability (JZL-184 + Phenformin; first compound 1.265 µM)	relative viability (JZL-184 + Phenformin; first compound 4 µM)	relative viability (JZL-184 + Linsitinib; first compound 0.04 µM)	relative viability (JZL-184 + Linsitinib; first compound 0.4 µM)	relative viability (JZL-184 + Linsitinib; first compound 1.265 µM)	relative viability (JZL-184 + Linsitinib; first compound 4 µM)	relative viability (JZL-184 + Foretinib; first compound 0.04 µM)	relative viability (JZL-184 + Foretinib; first compound 0.4 µM)	relative viability (JZL-184 + Foretinib; first compound 1.265 µM)	relative viability (JZL-184 + Foretinib; first compound 4 µM)	relative viability (JZL-184 + Crizotinib; first compound 0.04 µM)	relative viability (JZL-184 + Crizotinib; first compound 0.4 µM)	relative viability (JZL-184 + Crizotinib; first compound 1.265 µM)	relative viability (JZL-184 + Crizotinib; first compound 4 µM)	relative viability (JZL-184; 0.04 µM)	relative viability (JZL-184; 0.4 µM)	relative viability (JZL-184; 1.265 µM)	relative viability (JZL-184; 4 µM)
LXF-289	0.574	0.496	0.546	0.525	1.05	0.94	0.971	0.924	1.05	0.957	0.997	0.947	0.813	0.819	0.765	0.75	1.08	0.926	1.02	0.959
BEN	0.245	0.235	0.271	0.279	1.19	0.881	0.995	0.995	0.666	0.772	0.78	0.846	1	0.87	1.02	0.861	1.1	0.949	1.21	1.01
NCI-H2023	0.477	0.342	0.469	0.35	0.664	0.756	0.757	0.522	1.01	0.874	0.978	0.79	0.726	0.626	0.671	0.578	1.15	0.921	1.01	0.944
NCI-H661	0.259	0.287	0.292	0.332	0.542	0.477	0.712	0.521	1.07	1.01	0.992	1.01	0.933		0.935	0.928	1.02	0.919	0.943	0.999
NCI-H1355	0.421	0.427	0.505	0.429	0.606	0.856	0.842	0.8	1.06	0.936	1.01	0.929	1.06	1.01	1.22	0.925	0.984	0.927	1.06	0.946
COR-L 105	0.595	0.497	0.548	0.436	1.11	0.806	0.83	0.828	0.989	0.975	0.995	1.22	0.985	0.735	0.822	0.696	1.13	0.876	1.1	0.812
NCI-H2228	0.405	0.239	0.317	0.412	0.642	0.892	0.636	0.616	1.07	0.701	0.992	0.803	0.543	0.442	0.517	0.511	1.16	0.945	1.04	0.918
NCI-H838	0.594	0.601	0.643	0.608	1.23	1.05	0.98	0.98	1.04	1.04	1.14	0.901	1.05	0.885	0.941	0.76	1.11	1.03	1.04	0.984
EMC-BAC-2	0.609	0.476	0.568	0.456	0.855	0.793	0.791	0.784	1.09	0.957	1.09	0.947	0.939	0.726	0.785	0.704	1.05	0.944	1.12	0.922
LU99A	0.86	0.763	0.999	0.968	0.582	0.511	0.529	0.442	0.801	0.726	0.873	0.767	0.657	0.529	0.622	0.63	1.01	0.774	1.18	0.968
PC-3 [JPC-3]	0.45	0.464	0.495	0.487	0.955	0.936	0.973	0.905	1.08	0.975	1.09	0.913	1.02	1.03	1.01	0.974	1.04	0.978	1.1	1.01
NCI-H596	0.895	0.663	0.895	0.769	1.21	0.978	1.05	1.05	0.879	0.719	0.968	0.801	1.19	0.955	1.03	1.06	1.21	0.875	1.01	0.932
LCLC-97TM1	0.396	0.431	0.449	0.435	0.183		0.208	0.198	1.01	0.981	0.979	0.867	0.574		0.505	0.271	1.13	0.852	1.05	0.84
NCI-H1993	0.428	0.476	0.487	0.47	0.703	0.773	0.727	0.696	0.769	0.669	0.758	0.816	0.956	0.805	0.934	0.903	0.943	0.982	1.08	0.916
HARA	0.376	0.39	0.481	0.407	0.97	0.869	0.935	0.994	1.16	0.569	0.968	0.924	1.17	0.99	0.995	1.03	0.995	0.814	1.05	0.831
